In US20230340037A1, “INHIBITORS OF ?-SYNUCLEIN AGGREGATION AND USES THEREOF” (U[…] DE BARCELONA, priority 2020, published 2023):

How the values were obtained:
[1] = tested on: SH-SY5Y neuroblastoma cells; test: Toxic a-synuclein oligomer induced increase of intracellular reactive oxygen species; type: cell-based, human
Experimental: A stock solution of 80 μM toxic a-synuclein oligomer (prepared as described in example 3) and a stock solution of 80 μM toxic a-synuclein oligomer and 80 μM of the tested inhibitor are prepared in PBS and incubated for 15 min at 20° C. before being added to cell-containing wells as described below.
Human SH-SY5Y neuroblastoma cells (ATCC, #CRL-2266) cultured in growth medium (Eagle's Minimum Essential Medium (EMEM) supplemented with 10% […] (FBS)) are seeded onto a glass slide mounted with 8 removable wells (e.g., Nunc Lab-Tek II Chamber Slide System, #154941) with 0.5 mL cells/well at 0.5×10^6 cells/mL in growth medium for 24 h at 37° C. and 5% C02. […]
Then, a fluorogenic reagent for oxidative stress detection in live cells (e.g., a CellRox® reagent from Invitrogen, Carlsbad, USA, such as CellRox® Green) is added (final concentration of CellRox® Green 5 μM). […] The intracellular fluorescence of the treated SH-SY5Y cells is then analyzed with a confocal microscope (e.g. a Leica TCS SP5, Leica Microsystems, Wetzlar, Germany, with a HCX PL APO 63×1.4 oil immersion objective) equipped with a camera, using wave lengths for excitation and detection which are suitable for the used oxidative stress detection agent (for CellRox® Green: excitation at 488 nm and detection at 515-560 nm). […] ROS fluorescence are calculated from mean of 100 cells.

a-synuclein fibrils = molecular target: T1, a-synuclein fibrils (Homo sapiens, UniProt P37840, N122C); test: dcFCCS and smFRET analysis of binding to a-synuclein fibrils; settings: peptide labeled with Atto647N; cross-correlation signal and smFRET events
T1 construct: made in house; host or cells: Escherichia coli BL21 (DE3), pET21a
Experimental: (§1) The relative binding affinities of inhibitors of the present disclosure to toxic a-synuclein oligomers, a-synuclein fibrils, and monomeric a-synuclein can be determined via […] (dcFCCS) as follows.
(§2) Dual-Colour FCCS (dcFCCS) experiments are performed on a Time-Resolved Fluorescence confocal microscope (e.g., MT200 from PicoQuant, Berlin, Germany) with a Time-Correlated Single Photon Counting (TCSPC) unit. Pulsed Interleaved Excitation (PIE) is used at laser powers of 6 μW (481 nm) and 5 μW (637 nm) measured after the dichroic mirror for optimal count rates while avoiding photobleaching and saturation. The coverslip is placed directly on the immersion water on top of the objective (e.g., Super Apochromat 60×NA 1.2 objective with a correction collar). The dichroic 488/640 nm is chosen as the main beam splitter. A 50 μm pinole is used. The emission light beam is split by a 50/50 beamsplitter into 2 detection paths. […] The software is also used for fitting the FCS and FCCS data as well as for a PIE-FRET analysis of the data from which the FRET efficiency (E) is calculated.
(§3) The binding of inhibitors of the present disclosure to toxic a-synuclein oligomers, a-synuclein fibrils, and monomeric a-synuclein can be determined via Förster resonance energy transfer (smFRET) as follows. […]

[2] = molecular target: T2, toxic a-synuclein oligomer (type B*) (Homo sapiens, UniProt P37840, N122C); test: dcFCCS and smFRET analysis of binding to toxic a-synuclein oligomer; settings: peptide labeled with Atto647N; cross-correlation signal and smFRET events
T2 construct: made in house; host or cells: Escherichia coli BL21 (DE3), pET21a
Experimental: as §1, §2, §3

[3] = molecular target: T3, non-toxic a-synuclein oligomer (type A*) (Homo sapiens, UniProt P37840, N122C); test: dcFCCS and smFRET analysis of binding to non-toxic a-synuclein oligomer; settings: peptide labeled with Atto647N
T3 construct: made in house; host or cells: Escherichia coli BL21 (DE3), pET21a

a-synuclein monomer = molecular target: T4, a-synuclein monomer (Homo sapiens, UniProt P37840, N122C); test: dcFCCS and smFRET analysis of binding to a-synuclein monomer; settings: peptide labeled with Atto647N
T4 construct: made in house; host or cells: Escherichia coli BL21 (DE3), pET21a
Experimental: as §1, §2, §3

a-synuclein = molecular target: T5, a-synuclein (Homo sapiens, UniProt P37840); test: a-synuclein aggregation kinetics assay (thioflavin-T); type: biochemical; settings: 70 μM a-synuclein, Th-T, equimolar and substoichiometric peptide concentrations, 32 h
T5 construct: made in house; host or cells: Escherichia coli BL21 (DE3), pET21a
Experimental: a-synuclein aggregation can be monitored as described in Pujols et al., 2018. Specifically, inhibition of in vitro a-synuclein aggregation at equimolar concentrations of a-synuclein and the tested inhibitor can be determined as follows:
A 96 well microtiter plate is prepared to contain, in each well, a Teflon polyball (3.175 mm in diameter, e.g., from Polysciences Europe GmbH, Eppelheim, Germany) and 150 μl of PBS containing 70 μM a-synuclein (prepared from diluting the 0.22 μm-filtered 210 μM a-synuclein solution described in example 1), 40 μM thioflavin-T and 70 μM of the tested inhibitor. 150 μl/well of PBS containing 70 μM a-synuclein and 40 μM thioflavin-T is used as a control. […] Every two hours, the fluorescence intensity is measured (e.g. using a Victor3.0 Multilabel Reader, PerkinElmer Waltham, MA, USA) by exciting the mixtures at 430-450 nm and measuring the emission intensity at 480-510 nm. […]
Parallel wells (e.g. triplicates) are prepared for each tested inhibitor and the control. For the measurement of each time interval, the measured fluorescence intensity of the respective parallel wells is averaged and then normalized to the maximum fluorescence of the control (a-synuclein without inhibitor) and fitted to the Finke-Watzky curve, accounting for fibril elongation and secondary nucleation. […]

| Compound | cytotoxicity of toxic aS oligomers ([1]; neuroblastoma cell culture) | interaction with a-synuclein fibrils (a-synuclein fibrils) | interaction with toxic a-synuclein oligomer [2] | interaction with non-toxic a-synuclein oligomer [3] | generation of reactive oxygen species ([1]; coincubated with a-synuclein toxic oligomers, 10 μM) | interaction with a-synuclein monomer (a-synuclein monomer) | inhibition of a-synuclein aggregation (a-synuclein) |
| --- | --- | --- | --- | --- | --- | --- | --- |
| CSCC[C@H](N)C(=O)N[C@@H](CCC(=O)O)C(=O)N[C@@H](Cc1ccccc1)C(=O)N[C@H](C(=O)N[C@@H](C)C(=O)N[C@@H](CCCCN)C(=O)N[C@@H](CC(C)C)C(=O)N[C@@H](Cc1ccccc1)C(=O)N[C@@H](CCCCN)C(=O)N[C@@H](Cc1ccccc1)C(=O)N[C@@H](Cc1ccccc1)C(=O)N[C@@H](CCCCN)C(=O)N[C@@H](CC(=O)O)C(=O)N[C@@H](CC(C)C)C(=O)N[C@@H](CC(C)C)C(=O)NCC(=O)N[C@@H](CCCCN)C(=O)N[C@@H](Cc1ccccc1)C(=O)N[C@@H](CC(C)C)C(=O)NCC(=O)N[C@@H](CC(N)=O)C(=O)N[C@@H](CC(N)=O)C(=O)O)C(C)C [PSMα3] | reduced cytotoxicity | – | – | – | – | – | – |
| LL-37 | – | interact with | interact with | not | reduce the generation of reactive oxygen species | not | inhibit a-synuclein aggregation |
